In patent US9718790B2, “Triazine derivative and pharmaceutical composition having an analgesic activity comprising the same” (SHIONOGI & CO., LTD., priority 2010, dated 2017) one finds IC50 data, which are given here for 24 molecules.

Chain of human P2X3 receptor (P56373 whole entry): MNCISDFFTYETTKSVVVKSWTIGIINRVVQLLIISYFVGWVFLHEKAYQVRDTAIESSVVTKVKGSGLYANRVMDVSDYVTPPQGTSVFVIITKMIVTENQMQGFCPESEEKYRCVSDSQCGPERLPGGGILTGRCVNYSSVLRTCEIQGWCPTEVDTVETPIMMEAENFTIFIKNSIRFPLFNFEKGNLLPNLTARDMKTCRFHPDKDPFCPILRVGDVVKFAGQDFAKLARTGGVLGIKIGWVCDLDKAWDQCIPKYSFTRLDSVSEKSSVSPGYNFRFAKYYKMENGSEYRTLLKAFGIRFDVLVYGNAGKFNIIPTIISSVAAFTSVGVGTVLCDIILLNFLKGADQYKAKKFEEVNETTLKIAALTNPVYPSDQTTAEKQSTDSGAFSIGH

The first assay concerns the target human P2X3 receptor (Homo sapiens (Human), UniProt P56373). The assay is described as follows: Evaluation of human P2X3 receptor inhibitory activity (Fluo-3 calcium fluorescence, FDSS 3000, ATP stimulation).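 Further: stimulus was 50 nM ATP with fluorescence followed for 3 min, and the response per well was peak post-ATP fluorescence divided by the reading at measurement start.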 Particulars: C6BU-1 cells stably expressing human P2X3 receptor. Type of assay: cell-based.
The term IC50 denotes the concentration that gives 50% inhibition. As for `C[C@H](C(=O)O)[C@@H](C)n1c(=O)[nH]/c(=N\c2ccc(OC3CCC3)cc2)n(Cc2ccc(Cl)cc2)c1=O` [Compound I-1456], the IC50 was found to be 14 nM.
In the case of `Cc1ccc(Cn2c(=O)n(C)c(=O)[nH]/c2=N\c2ccc(Oc3ccnc(C(=O)O)c3)cc2)cc1` [Compound I-2100], the IC50 was determined as 7 nM.
`CC(C)Oc1ccc(/N=c2\[nH]c(=O)n(CCS(=O)(=O)O)c(=O)n2Cc2ccc(Cl)cc2)cc1F` [Compound I-0654]: the IC50 turned out to be 26 nM.
With `CCCc1ccc(/N=c2\[nH]c(=O)n(CCC(=O)OCC)c(=O)n2Cc2ccc(C)cc2)cc1C` [Compound I-1215], the IC50 is 27 nM.
Take `O=C(O)CCn1c(=O)[nH]/c(=N\c2ccc(OC3CCC3)c(Cl)c2)n(Cc2ccc(Cl)cc2)c1=O` [Compound I-1333]: the IC50 came out at 52 nM.
Consider `CCOC(=O)C(CNc1ccc(OC(C)C)c(C)c1)Cn1c(=O)[nH]/c(=N\c2ccc(OC(C)C)c(C)c2)n(Cc2ccc(Cl)cc2)c1=O` (stereo not drawn) [Compound I-0778], for which the IC50 was 84 nM.
Regarding `CC(C)Oc1ccc(/N=c2\[nH]c(=O)n(CC(C)(C)C(=O)O)c(=O)n2Cc2ccc(Cl)cc2)cc1CO` [Compound I-1431], the IC50 is 242 nM.

Staying with this assay, now noted: C6BU-1 cells stably expressing human P2X3 receptor, Fluo-3 fluorescence, FDSS 3000.
As to `Cc1cc(Oc2ccc(/N=c3\[nH]c(=O)n(CCO)c(=O)n3Cc3ccc(Cl)cc3)cc2)no1` [Compound I-1756], the IC50 was found to be 30 nM.
On the same count and under the same terms, then `CCc1oc2ccc(/N=c3\[nH]c(=O)n(CC(=O)NCCO)c(=O)n3Cc3ccc(Cl)cc3)cc2c1C` [Compound I-1658], with 6 nM; and `Cc1ccc(Cn2c(=O)n(C[C@H](C)C(=O)O)c(=O)[nH]/c2=N\c2ccc(C3CCCC3)cc2)cc1` [Compound I-1113], with 123 nM; and `CCc1nc2ccc(/N=c3\[nH]c(=O)n(CCCC(=O)O)c(=O)n3Cc3ccc(Cl)cc3)cc2s1` [Compound I-1705], with 14 nM.
On to `CCc1oc2ccc(/N=c3\[nH]c(=O)n(CC(CO)CO)c(=O)n3Cc3ccc(Cl)cc3)cc2c1C` [Compound I-1842], for which the IC50 amounted to 5 nM.
On the same count and under the same terms, in the case of `CCOC(=O)CCn1c(=O)[nH]/c(=N\c2ccc(OC(C)C)c(Br)c2)n(Cc2ccc(C)cc2)c1=O` [Compound I-1168] it was 4 nM.
Regarding `CC(=O)Nc1nc2ccc(/N=c3\[nH]c(=O)n([C@@H](C)[C@@H](C)C(=O)O)c(=O)n3Cc3ccc(Cl)cc3)cc2s1` [Compound I-1793], the IC50 was found to be 984 nM.
The same measure, in the same setting: in the case of `CCCOc1ccc(/N=c2\[nH]c(=O)n([C@@H](C)[C@@H](C)C(=O)O)c(=O)n2Cc2ccc(Cl)cc2)cc1` [Compound I-0920] it was 37 nM.
Same read-out and setting: then `CCc1ccc(Cn2c(=O)n(C[C@H](C)C(=O)OC)c(=O)[nH]/c2=N\c2ccc(OC(C)C)cc2)cc1` [Compound I-1133], with 51 nM; and `CC(C)Oc1ccc(/N=c2\[nH]c(=O)n(CCC(=O)O)c(=O)n2CC2(C)CCCCC2)cc1F` [Compound I-1809], with 339 nM.

The same assay, now with this note: human P2X3 receptor, Test Example 1.
Consider `Cc1ccc(Cn2c(=O)n(C)c(=O)[nH]/c2=N\c2ccc(Oc3cc(C#N)ccn3)cc2)cc1` [Compound I-2340], for which the IC50 was found to be 13 nM.
As for `COC(=O)[C@@H](C)n1c(=O)[nH]/c(=N\c2ccc(Oc3ccon3)cc2)n(Cc2ccc(Cl)cc2)c1=O` [Compound I-2460], the IC50 turned out to be 35 nM.
Take `CC1(Cn2c(=O)[nH]/c(=N\c3ccc(Oc4ccon4)cc3)n(Cc3ccc(Cl)cc3)c2=O)COC(C)(C)OC1` [Compound I-2630]: the concentration for half-maximal inhibition (IC50) came out at 3 nM.
In the case of `CCCOc1ccc(/N=c2\[nH]c(=O)n(C(C)(C)CC(=O)O)c(=O)n2Cc2ccc(Cl)cc2)cc1` [Compound I-0829], the IC50 came out at 216 nM.
As to `O=c1[nH]/c(=N\c2ccc(Oc3ncccn3)cc2)n(Cc2ccc(Cl)cc2)c(=O)n1CCCO` [Compound I-2543], the IC50 amounted to 10 nM.
As to `COc1cccc(Oc2ccc(/N=c3\[nH]c(=O)n(CC(CO)CO)c(=O)n3Cc3ccc(Cl)cc3)cc2)n1` [Compound I-2641], the IC50 amounted to 12 nM.
Still for that read-out and setting: then `COC(=O)[C@@H](C)Cn1c(=O)[nH]/c(=N\c2ccc(-c3noc(C)n3)cc2)n(Cc2ccc(Cl)cc2)c1=O` [Compound I-1529], with 26 nM.
